Results as given in patent US7074778B2, “Asthma associated factors as targets for treating atopic allergies including asthma and related disorders” (Genaera Corporation, priority 1999, dated 2006).
≈ marks a conversion by molar mass, not a printed value. Where two headings read alike, the source gives them in different places.

Columns and labels:
[1] = system: mitogen or antigen stimulated murine or human lymphocytes; test: Lymphocyte aggregation assay (PHA-PMA mitogen stimulated); assay type: cell-based; conditions: aggregates of greater than 100 cells, PHA-PMA stimulation; for minimal effective concentration: Homo sapiens, Lymphocyte, 12 h, read-out: Aggregation Assay Minimum Effective Conc.
Experimental: (§1) Immunomodulatory 3-aminosteroids (FIGS. 3–7 and Table I) were identified in vitro based on their ability to inhibit homo- or hetero-typic aggregation and subsequent proliferation of mitogen or antigen stimulated murine or human lymphocytes. Human or mouse lymphocytes were isolated from peripheral blood by Ficoll-Hypaque as described (Stoeckert et al., (1990) Exp. Hematol. 18. 1164–1170). For mitogen stimulation, 1×10^5 cells per well were plated in varying amounts of 3-aminosteroid compounds and assayed for aggregation and proliferation after twelve hours of stimulation by PHA-PMA mitogens. […] For antigen stimulation, lymphocytes were isolated from BALBc mice which had been sensitized to Aspergillus fumigatus antigen for three weeks and plated at 1×10^5 cells per well with or without 100 units of Aspergillus fulmigatus antigen. Cells were grown for three days and then scored for cellular aggregates and proliferation as described above in the presence or absence of increasing amounts of Compound-B or analogue compounds. […] Similar results were obtained in assays using antigen mediated response to compounds (not shown). […] All of the active compounds shown in Table I as well as rational modifications of these compounds as depicted in FIGS. 8–10 are embodiments of the invention

[2] = system: mitogen or antigen stimulated murine or human lymphocytes; test: PBMC proliferation assay (tritiated thymidine incorporation); assay type: cell-based; conditions: for IC50: Homo sapiens, Lymphocyte
Experimental: as §1

D2 naive mice = test: Bronchial hyperresponsiveness in D2 naive mice (APTI); assay type: in vivo, mouse; conditions: ip, FIG. 14
Experimental: DBA2, C57BL6 or B6D2F1 mice, five to six weeks of age, were obtained from the National Cancer Institute or Jackson Laboratories. Animals were housed in high-efficiency particulate filtered air laminar flow hoods in a virus and antigen free facility and allowed free access to pelleted rodent chow and water for three to seven days prior to experimental manipulation. The animal facilities were maintained at 22° C. and the light:dark cycle is automatically controlled (10:14 hour cycle).
Phenotyping and efficacy of pretreatment. Animals either received no pretreatment or were sensitized by nasal aspiration of Aspergillus fumigatus antigen to assess the effect on bronchial hyperresponsiveness, bronchoalveolar lavage and serum IgE. Mice were challenged with Aspergillus or saline intranasally (Monday, Wednesday and Friday for three weeks) and phenotyped twenty-four hours after the last dose. The effect of pretreatment by aminosteroids was used to assess the effect of down-regulating the IL-9 pathway in mice. To determine the bronchoconstrictor response, respiratory system pressure was measured at the trachea and recorded before and during exposure to the drug. Mice were anesthetized and instrumented as previously described. (Kleeberger et al., (1990) Am. J. Physiol. 258, L313–320; Levitt et al., (1995) Clin. Exp. Allergy 25, 61–63; Ewart et al., (1995) J. Appl. Physiol. 79, 560–566). Airway responsiveness was measured to one or more of the following: 5-hydroxytryptamine, acetylcholine, atracurium or a substance-P analogue. A simple and repeatable measure of the change in peak inspiratory pressure following bronchoconstrictor challenge was used which has been termed the Airway Pressure Time Index (APTI). The APTI was assessed by the change in peak respiratory pressure integrated from the time of injection until the peak pressure returns to baseline or plateau.
Active compounds identified in vitro were tested in vivo for their ability to suppress airway hyperresponsiveness, lung eosinophilia and serum Ig levels using assays described above. […]

[3] = tritiated thymidine incorporation, read-out: PBMC Proliferation ASSAY IC50
[4] = tritiated thymidine incorporation
[5] = FIG. 11 and FIG. 12, mitogen-stimulated lymphocytes, read-out: IC50 for suppression of lymphocyte aggregation and proliferation

`COC(=O)CC[C@@H](C)C1CCC2C3CC[C@@H]4C[C@@H](NCCN)CC[C@]4(C)C3C[C@H](O)[C@@]21C` (some centres unmarked) [AH] gave a minimal effective concentration [1] of 1 µg/mL and an IC50 [2, 3] of 0.1 mg/L (≈ 0.223 µM).
`COC(=O)CC[C@H](C)C1CCC2C3CC[C@@H]4C[C@@H](NCCN)CC[C@]4(C)C3C[C@@H](O)[C@@]21C` (some centres unmarked) [AC] showed a minimal effective concentration [1] of 10 µg/mL and an IC50 [2, 3] of 0.47 mg/L (≈ 1.05 µM).
In the case of `COC(=O)CC[C@H](C)C1CCC2C3CC[C@@H]4C[C@@H](NCCN)CC[C@]4(C)C3CC[C@@]21C` (some centres unmarked) [S], the minimal effective concentration [1] is reported as 10 µg/mL, the “toxicity remark in PBMC Proliferation ASSAY” value [2] is reported as “toxic” and the IC50 [2, 3] is reported as < 0.1 mg/L.
`C[C@@H](COc1ccccn1)C1CCC2C3CC[C@@H]4C[C@@H](NCCN)CC[C@]4(C)C3CC[C@@]21C` (some centres unmarked) [Compound-N] was tested, and the “Aggregation Assay Minimum Effective Conc.” value [1] was 1 to 10 µg/mL and the “PBMC Proliferation ASSAY IC50” value [2, 4] was 0.06 mg/L.
With `COC(=O)CC[C@H](C)C1CCC2C3C(CC[C@@]21C)[C@@]1(C)CC[C@H](NCCN)C[C@H]1C[C@@H]3OC(C)=O` (some centres unmarked) [AD] the minimal effective concentration [1] was 10 µg/mL and the IC50 [2, 3] was 0.29 mg/L (≈ 0.591 µM).
Compound `C[C@@H](CC1CCOC1=O)C1CCC2C3CC[C@@H]4C[C@@H](NCCN)CC[C@]4(C)C3CC[C@@]21C` (mixture of isomers) [Compound-K] has a minimal effective concentration [1] of 10 µg/mL and an IC50 [2, 3] of 0.31 mg/L (≈ 0.697 µM).
`C[C@@H](CNS(C)(=O)=O)C1CCC2C3CC[C@@H]4C[C@@H](NCCN)CC[C@]4(C)C3CC[C@@]21C` (some centres unmarked) [Compound-F] showed an IC50 [2, 3] of 2.88 mg/L (≈ 6.35 µM).
`COC(=O)CC[C@H](C)C1CCC2C3C[C@@H](O)[C@@H]4C[C@@H](NCCCOCCCCOCCCN)CC[C@]4(C)C3CC[C@@]21C` (some centres unmarked) [AF] was tested, and the minimal effective concentration [1] was 10 µg/mL and the IC50 [2, 3] was 2.41 mg/L (≈ 4.06 µM).
With `COC(=O)CC[C@H](C)C1CCC2C3CC[C@@H]4C[C@@H](NCCCNCCCCNCCCN)CC[C@]4(C)C3CC[C@@]21C` (some centres unmarked) [Compound-D] the minimal effective concentration [1] was 10 µg/mL, the IC50 [2, 5] was 10 mg/L (≈ 17.4 µM) and the “suppression of bronchial hyperresponsiveness” value (D2 naive mice) was “effective in suppressing bronchial hyperresponsiveness”.
`C[C@H](CC1CCOC1=O)C1CCC2C3CC[C@H]4C[C@@H](NCCN)CC[C@]4(C)C3CC[C@@]21C` (some centres unmarked) [Compound-J] gave a minimal effective concentration [1] of 1 µg/mL and an IC50 [2, 3] of 0.03 mg/L (≈ 0.0675 µM).
With `COC(=O)CC[C@@H](C)C1CCC2C3C(CC[C@@]21C)[C@@]1(C)CC[C@H](N2CCNCC2)C[C@H]1C[C@H]3O` (some centres unmarked) [AE] the minimal effective concentration [1] was 10 µg/mL and the IC50 [2, 3] was 0.28 mg/L (≈ 0.59 µM).
With `COC(=O)CC[C@H](C)C1CCC2C3CC(O)[C@@H]4C[C@@H](NCCNC(C)C)CC[C@]4(C)C3CC[C@@]21C` (some centres unmarked) [R] the IC50 [2, 3] was 0.24 mg/L (≈ 0.489 µM).
`C[C@@H](COc1ccccn1)C1CCC2C3CC[C@@H]4C[C@@H](N5CCNCC5)CC[C@]4(C)C3CC[C@@]21C` (some centres unmarked) [Compound-P] was tested, and the minimal effective concentration [1] was > 10 µg/mL.
Work on `C[C@H](CC1CCOC1=O)C1CCC2C3CC[C@H]4C[C@@H](N5CCCNCC5)CC[C@]4(C)C3CC[C@@]21C` (some centres unmarked) [Compound-M] yielded a minimal effective concentration [1] of 10 µg/mL.
With `COC(=O)CC[C@H](C)C1CCC2C3CC[C@@H]4C[C@@H](NCCNc5ccccc5)CC[C@]4(C)C3C[C@@H](O)[C@@]21C` (some centres unmarked) [Y] the minimal effective concentration [1] was 10 µg/mL.
With `C[C@@H](CNS(C)(=O)=O)C1CCC2C3CC[C@@H]4C[C@@H](NCCN)CC[C@]4(C)C3CC[C@@]21C` (some centres unmarked) [Compound-G] the minimal effective concentration [1] was 10 µg/mL.
`COC(=O)CC[C@@H](C)C1CCC2C3C[C@@H](O)[C@H]4C[C@H](NCCN)CC[C@]4(C)C3CC[C@@]21C` (some centres unmarked) [AG] gave a minimal effective concentration [1] of 10 µg/mL.
In the case of `COC(=O)CC[C@H](C)C1CCC2C3CC[C@@H]4C[C@@H](NCCNC(C)C)CC[C@]4(C)C3C[C@@H](O)[C@@]21C` (some centres unmarked) [AA], the minimal effective concentration [1] is reported as 10 µg/mL and the IC50 [2, 3] is reported as 0.42 mg/L (≈ 0.856 µM).
Compound `COC(=O)CC[C@H](C)C1CCC2C3C(O)C[C@@H]4C[C@@H](NCCN)CC[C@]4(C)C3CC[C@@]21C` (some centres unmarked) [T] has a minimal effective concentration [1] of 10 µg/mL and an IC50 [2, 3] of 2.77 mg/L (≈ 6.17 µM).
For `COC(=O)CC[C@H](C)C1CCC2C3CC[C@@H]4C[C@@H](NCc5ccccn5)CC[C@]4(C)C3C[C@@H](O)[C@@]21C` (some centres unmarked) [X], the minimal effective concentration [1] was 10 µg/mL.
With `COC(=O)CC[C@H](C)C1CCC2C3CC[C@@H]4C[C@@H](NCCC5CCCN5C)CC[C@]4(C)C3C[C@@H](O)[C@@]21C` (some centres unmarked) [Z] the minimal effective concentration [1] was 10 µg/mL and the IC50 [2, 3] was 0.71 mg/L (≈ 1.37 µM).
For `CC(C)OC(=O)CC[C@H](C)C1CCC2C3C(O)C[C@@H]4C[C@@H](NCCN)CC[C@]4(C)C3CC[C@@]21C` (some centres unmarked) [U], the “Aggregation Assay Minimum Effective Conc.” value [1] was 1 to 10 µg/mL and the IC50 [2, 3] was 0.4 mg/L (≈ 0.839 µM).
For `C[C@H](CCC(=O)O)C1CCC2C3CC[C@@H]4C[C@H](NCCN)CC[C@]4(C)C3C[C@H](O)[C@@]21C` (some centres unmarked) [C], the minimal effective concentration [1] was > 10 µg/mL.
For `CC(C)OC(=O)CC[C@H](C)C1CCC2C3C(O)C[C@@H]4C[C@@H](NCCN)CC[C@]4(C)C3CC[C@@]21C` (some centres unmarked) [V], the “Aggregation Assay Minimum Effective Conc.” value [1] was 10 µg/mL and the “PBMC Proliferation ASSAY IC50” value [2, 4] was 0.41 mg/L.
`COC(=O)CC[C@H](C)C1CCC2C3CC[C@@H]4C[C@@H](NCCN5CCCC5)CC[C@]4(C)C3C[C@@H](O)[C@@]21C` (some centres unmarked) [W] showed a minimal effective concentration [1] of 10 µg/mL.
`COC(=O)NC[C@@H](C)C1CCC2C3CC[C@H]4C[C@@H](NCCN)CC[C@]4(C)C3CC[C@@]21C` (some centres unmarked) [Compound-H] was tested, and the IC50 [2, 3] was 0.26 mg/L (≈ 0.6 µM) and the “PBMC Proliferation ASSAY IC50” value [2, 4] was 0.44 mg/L.
With `COC(=O)CC[C@H](C)C1CCC2C3CC[C@@H]4C[C@@H](N)CC[C@]4(C)C3C[C@@H](O)[C@@]21C` (some centres unmarked) [AB] the minimal effective concentration [1] was 10 µg/mL and the IC50 [2, 3] was 2.54 mg/L (≈ 6.26 µM).
`C[C@H](CCC(=O)O)C1CCC2C3C(CC[C@@]21C)[C@@]1(C)CC[C@H](NCCN)C[C@H]1C[C@H]3O` (some centres unmarked) [E] was tested, and the minimal effective concentration [1] was > 10 µg/mL and the IC50 [2, 5] was > 10 mg/L.
With `C[C@@H](COc1ccccn1)C1CCC2C3CC[C@@H]4C[C@@H](NCCN)CC[C@]4(C)C3CC[C@@]21C` (some centres unmarked) [Compound-O] the “Aggregation Assay Minimum Effective Conc.” value [1] was 10 µg/mL and the “PBMC Proliferation ASSAY IC50” value [2, 4] was 0.25 mg/L.
